One block for each compound: values may come before it.
Legend:
[1] = test system: patient-derived PDAC organoids; format: cell-based, human
MIA PaCa-2/GemLuc cells = format: cell-based
[2] = test system: SUIT2, MIA PaCa-2 and MDA-MB-231 cell lines; assay: cells; format: cell-based; details: read-out: IC50 values (range)
NCI-H460 = details: read-out: IC50 NCI-H460; cited from earlier work
HCT-15 = details: read-out: IC50 HCT-15; cited from earlier work
[3] = test system: MCF-7 breast cancer cells; assay: cells; format: cell-based; details: Homo sapiens, MCF7, 72 h, read-out: IC50 against MCF-7 breast cancer cells

SMILES: Cc1cc2cc(O)ccc2[nH]1 [Compound L01, 2-Methyl-1H-indol-5-ol]
antiproliferative activity against patient-derived PDAC organoids [1]: no antiproliferative activity
cell cycle arrest (red S/G2/M bioluminescence) (MIA PaCa-2/GemLuc cells): failed to elicit the same effect

IC50 [2]: 2.4 to 8.7 nM
SMILES: COc1ccc(/C=C\c2cc(OC)c(OC)c(OC)c2)cc1O [CA-4, combretastatin A4]
IC50 (NCI-H460): 3 nM
IC50 (HCT-15): 1.7 nM

IC50 [3]: > 200000 nM
SMILES: C[C@]12CC[C@@H]3c4ccc(O)cc4CC[C@H]3[C@@H]1CCC2=O [estrone (5), Estrone]
